Results reported in patent publication US20260217732A1, “WRN INHIBITOR” (SUZHOU PUHE BIOPHARMA CO., LTD., priority 2022, published 2026).

Tests used:
[1] = molecular target: T1, WRN enzyme (Homo sapiens, UniProt Q14191); experiment: WRN helicase hydrolysis (unwinding) of double-stranded DNA, fluorescence assay; assay type: biochemical; conditions: 30 min pre-incubation, 60 min reaction
T1 construct: 10 μL (2×) of WRN enzyme solution was added
Method: • The molecules of the present disclosure were tested for their activities on the WRN helicase hydrolysis of double-stranded DNA (Table 1).
A working solution to be tested and a buffer were prepared. The compound to be tested was dissolved in DMSO and subjected to 4× dilution (with 10 μM final concentration as the starting concentration). 0.2 μL of the solution of the compound to be tested was added to the 384-well plate and 10 μL (2×) of WRN enzyme solution was added. The solution was incubated in the dark for 30 minutes. Then, 10 μL of a substrate detection solution containing double-stranded DNA was added to initiate the reaction (the DNA has a length of 19 bp, and labeled with TAMRA and BHQ2 at 3′ and 5′-ends, respectively). The solution was incubated at room temperature for 60 minutes. The inhibitory activities (IC50) against WRN enzyme were calculated based on the change of Ex530/Em590 in the blank group (DMSO) and the compound group.

[2] = test system: SW48 colorectal cancer cells; experiment: 2D antiproliferation on MSI-H SW48 cells, CTG, 5 days; assay type: cell-based; conditions: Homo sapiens, 120 h; SW48 MSI-H, 5 days
Method: The molecules of the present disclosure were tested for their anti-proliferative activity on MSI-H tumor cells.
SW48 colorectal cancer cells with MSI were cultured in a RMI1640 medium containing 10% FBS and 1% penicillin-streptomycin, and the mixture was cultured in a 37° C., 5% CO2 incubator. 40 μL of cell suspension was added to each well of a 384-well microplate. […] of compounds with different concentrations were added to each well using Echo, and the mixtures were cultured in a 37° C., 5% CO2 incubator for 5 days. 40 μL of CTG solution (Promega, Cat No. G7573) was added to each well and incubated in a 37° C., 5% CO2 incubator in the dark for 30 minutes. The luminescence value was read using an Envision multi-function microplate reader (Perkin Elmer, catalog number Envision 2104). The optical signal is proportional to the amount of ATP in the system, while the ATP content directly characterizes the number of viable cells in the system.

[3] = test system: HT-29 colorectal cancer cells; experiment: 2D antiproliferation on MSS HT-29 cells, CTG, 5 days; assay type: cell-based; conditions: Homo sapiens, 120 h, HT-29 MSS
Method: The molecules of the invention were tested for their anti-proliferative activities on MSS tumor cells.
HT-29 colorectal cancer cells with MSS were cultured in a McCoy's 5A medium containing 10% FBS and 1% penicillin-streptomycin in a 37° C., 5% CO2 constant temperature incubator. 40 μL of cell suspension was added to each well of a 384-well microplate. […] of compounds with different concentrations were added to each well using Echo. The mixtures were cultured in a 37° C., 5% CO2 constant temperature incubator for 5 days. 40 μL of CTG solution (Promega, Cat No. G7573) was added to each well, and the mixture was incubated in a 37° C., 5% CO2 constant temperature incubator for 30 minutes in the dark. The luminescence value was read using an Envision multi-function microplate reader (Perkin Elmer, catalog number Envision 2104). The optical signal is proportional to the amount of ATP in the system, while the ATP content directly characterizes the number of viable cells in the system.

T1 sequence (Q14191 whole entry): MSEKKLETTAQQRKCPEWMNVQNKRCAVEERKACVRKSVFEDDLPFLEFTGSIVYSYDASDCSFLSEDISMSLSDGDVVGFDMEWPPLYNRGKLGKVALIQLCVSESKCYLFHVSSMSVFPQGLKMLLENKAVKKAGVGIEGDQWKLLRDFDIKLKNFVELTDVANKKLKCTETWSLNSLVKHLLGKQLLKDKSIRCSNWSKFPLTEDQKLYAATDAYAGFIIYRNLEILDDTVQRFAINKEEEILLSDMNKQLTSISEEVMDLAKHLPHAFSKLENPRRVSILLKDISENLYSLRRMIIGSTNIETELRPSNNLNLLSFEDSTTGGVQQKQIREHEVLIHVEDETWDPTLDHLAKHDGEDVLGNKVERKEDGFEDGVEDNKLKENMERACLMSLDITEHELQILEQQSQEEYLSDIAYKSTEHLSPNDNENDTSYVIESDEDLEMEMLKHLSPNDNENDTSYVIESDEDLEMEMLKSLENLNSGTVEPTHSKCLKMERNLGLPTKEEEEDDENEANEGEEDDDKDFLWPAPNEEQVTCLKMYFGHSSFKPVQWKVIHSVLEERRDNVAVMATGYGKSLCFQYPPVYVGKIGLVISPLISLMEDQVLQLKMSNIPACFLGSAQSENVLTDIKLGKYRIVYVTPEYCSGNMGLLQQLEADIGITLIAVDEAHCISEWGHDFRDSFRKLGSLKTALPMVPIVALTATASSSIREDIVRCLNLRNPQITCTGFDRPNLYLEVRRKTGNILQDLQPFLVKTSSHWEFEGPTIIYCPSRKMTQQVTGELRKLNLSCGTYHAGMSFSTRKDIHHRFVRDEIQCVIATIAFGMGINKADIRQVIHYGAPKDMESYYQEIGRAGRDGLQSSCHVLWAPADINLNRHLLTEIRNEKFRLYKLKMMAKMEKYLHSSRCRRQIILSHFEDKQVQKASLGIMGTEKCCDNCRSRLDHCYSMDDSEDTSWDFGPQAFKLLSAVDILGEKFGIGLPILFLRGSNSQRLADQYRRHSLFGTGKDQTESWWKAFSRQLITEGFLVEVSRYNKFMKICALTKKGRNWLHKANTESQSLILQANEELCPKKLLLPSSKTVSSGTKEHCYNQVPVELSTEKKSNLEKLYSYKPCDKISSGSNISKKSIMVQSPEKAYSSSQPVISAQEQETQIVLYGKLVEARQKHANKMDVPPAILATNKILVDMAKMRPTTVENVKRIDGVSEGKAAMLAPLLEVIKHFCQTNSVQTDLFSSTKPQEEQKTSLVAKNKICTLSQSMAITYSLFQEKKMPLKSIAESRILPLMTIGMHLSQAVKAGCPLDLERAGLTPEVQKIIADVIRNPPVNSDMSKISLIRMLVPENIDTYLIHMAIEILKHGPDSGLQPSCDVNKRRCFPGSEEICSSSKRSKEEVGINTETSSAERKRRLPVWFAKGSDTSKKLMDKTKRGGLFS

Structure (SMILES): CCc1c(N2CC[C@@H](NC(=O)c3ncnc(C)c3O)C2)c(=O)n2nc(C3=CCOCC3)nc2n1CC(=O)Nc1ccc(C(F)(F)F)cc1Cl [P2]
- IC50 [1]: 2.3 nM
- IC50 [2]: 1110 nM

Structure (SMILES): CCc1c(N2CCN(C(=O)c3ncccc3O)CC2)c(=O)n2nc(-c3cncs3)nc2n1CC(=O)Nc1ccc(C(F)(F)F)cc1Cl [P5]
- IC50 [1]: 1.6 nM
- IC50 [3]: > 10000 nM

Structure (SMILES): CCc1c(N2CCN(C(=O)c3ncccc3O)CC2)c(=O)n2nc(-c3sccc3N)nc2n1CC(=O)Nc1ccc(C(F)(F)F)cc1Cl [P8]
- IC50 [1]: 3.7 nM
- IC50 [2]: 566 nM

Structure (SMILES): CCc1c(N2CCN(C(=O)c3ncccc3O)CC2)c(=O)n2nc(-c3ccc(COC)s3)nc2n1CC(=O)Nc1ccc(C(F)(F)F)cc1Cl [P10]
- IC50 [1]: 2.1 nM
- IC50 [2]: 125 nM
- IC50 [3]: > 10000 nM

Structure (SMILES): CCc1c(N2CCN(C(=O)c3ncccc3O)CC2)c(=O)n2nc(-c3cnc(CO)s3)nc2n1CC(=O)Nc1ccc(C(F)(F)F)cc1Cl [P11]
- IC50 [1]: 1.7 nM
- IC50 [2]: 127 nM
- IC50 [3]: > 10000 nM

Structure (SMILES): CCc1c(N2CCN(C(=O)c3ncccc3O)CC2)c(=O)n2nc(-c3cnc(C(C)=O)s3)nc2n1CC(=O)Nc1ccc(C(F)(F)F)cc1Cl [P12]
- IC50 [1]: 9.4 nM
- IC50 [2]: 450 nM
- IC50 [3]: > 10000 nM

Structure (SMILES): CCc1c(N2CCN(C(=O)c3ncccc3O)CC2)c(=O)n2nc(-c3cc4cn[nH]c4s3)nc2n1CC(=O)Nc1ccc(C(F)(F)F)cc1Cl [P13]
- IC50 [1]: 2.2 nM
- IC50 [2]: 72 nM
- IC50 [3]: 9110 nM

Structure (SMILES): CCc1c(N2CCN(C(=O)c3ncccc3O)CC2)c(=O)n2nc(-c3[nH]nc4sccc34)nc2n1CC(=O)Nc1ccc(C(F)(F)F)cc1Cl [P14]
- IC50 [1]: 4.4 nM
- IC50 [2]: 97 nM
- IC50 [3]: > 10000 nM

Structure (SMILES): CCc1c(N2CCN(C(=O)c3ncccc3O)CC2)c(=O)n2nc(-c3ccc(C(C)=O)s3)nc2n1CC(=O)Nc1ccc(C(F)(F)F)cc1Cl [P15]
- IC50 [1]: 1.6 nM
- IC50 [2]: 381 nM
- IC50 [3]: > 10000 nM

Structure (SMILES): CCc1c(N2CCN(C(=O)c3ncccc3O)CC2)c(=O)n2nc(-c3cc4cnn(C)c4s3)nc2n1CC(=O)Nc1ccc(C(F)(F)F)cc1Cl [P16]
- IC50 [1]: 2.1 nM
- IC50 [2]: 120 nM
- IC50 [3]: > 10000 nM

Structure (SMILES): CCc1c(N2CCN(C(=O)c3ncccc3O)CC2)c(=O)n2nc(-c3cc4ccncc4s3)nc2n1CC(=O)Nc1ccc(C(F)(F)F)cc1Cl [P17]
- IC50 [1]: 2.3 nM
- IC50 [2]: 360 nM
- IC50 [3]: > 10000 nM

Structure (SMILES): CCc1c(N2CCN(C(=O)c3ncccc3O)CC2)c(=O)n2nc(-c3cc4cnccc4s3)nc2n1CC(=O)Nc1ccc(C(F)(F)F)cc1Cl [P18]
- IC50 [1]: 1.8 nM
- IC50 [2]: 499 nM
- IC50 [3]: 4870 nM

Structure (SMILES): CCc1c(N2CCN(C(=O)c3ncccc3O)CC2)c(=O)n2nc(-c3cc4c(s3)COC4)nc2n1CC(=O)Nc1ccc(C(F)(F)F)cc1Cl [P20]
- IC50 [1]: 1.6 nM
- IC50 [2]: 126 nM
- IC50 [3]: > 10000 nM

Structure (SMILES): CCc1c(N2CCN(C(=O)c3ncccc3O)CC2)c(=O)n2nc(-c3ccc4c(c3)OCO4)nc2n1CC(=O)Nc1ccc(C(F)(F)F)cc1Cl [P21]
- IC50 [1]: 3.3 nM
- IC50 [2]: 480 nM
- IC50 [3]: > 10000 nM

Structure (SMILES): CCc1c(N2CCN(C(=O)c3ncnc(C)c3O)CC2)c(=O)n2nc(-c3cc4c(s3)COC4)nc2n1CC(=O)Nc1ccc(Br)cc1C [P25]
- IC50 [1]: 1.7 nM
- IC50 [2]: 39 nM
- IC50 [3]: > 10000 nM

Structure (SMILES): CCc1c(N2CCN(C(=O)c3ncnc(C)c3O)CC2)c(=O)n2nc(-c3cc4c(s3)COC4)nc2n1CC(=O)Nc1ccc(C(F)(F)F)cc1F [P32]
- IC50 [1]: 1.5 nM
- IC50 [2]: 126 nM
- IC50 [3]: > 10000 nM

Structure (SMILES): CCc1c(N2CCN(C(=O)c3ncccc3O)CC2)c(=O)n2nc(-c3cnc(COC)s3)nc2n1CC(=O)Nc1ccc(C(F)(F)F)cc1Cl [P33]
- IC50 [1]: 1.8 nM
- IC50 [2]: 139 nM
- IC50 [3]: > 10000 nM

Structure (SMILES): CCc1c(N2CCN(C(=O)c3ncnc(C)c3O)CC2)c(=O)n2nc(-c3ccc4nccn4c3)nc2n1CC(=O)Nc1ccc(C(F)(F)F)cc1C [P47]
- IC50 [2]: 480 nM
- IC50 [3]: > 10000 nM

Structure (SMILES): CCc1c(N2CCN(C(=O)c3ncnc(C)c3O)CC2)c(=O)n2nc(-c3cc4cn[nH]c4s3)nc2n1CC(=O)Nc1ccc(C(F)(F)F)cc1C [P50]
- IC50 [2]: 162 nM
- IC50 [3]: > 10000 nM

Structure (SMILES): CCc1c(N2CCN(C(=O)c3ncnc(C)c3O)[C@H](C)C2)c(=O)n2nc(-c3cc4c(s3)COC4)nc2n1CC(=O)Nc1ccc(C(F)(F)F)cc1C [P53]
- IC50 [2]: 55 nM
- IC50 [3]: > 10000 nM

Structure (SMILES): CCc1c(N2CCN(C(=O)c3ncccc3O)CC2)c(=O)n2nc(-c3cc4c(s3)COC4)nc2n1CC(=O)Nc1ccc(C(F)(F)F)c2ccsc12 [P58]
- IC50 [1]: 2.9 nM
- IC50 [2]: 123 nM
- IC50 [3]: > 10000 nM
